Test results reported in article PMC8879444, “Neofunctionalization of Glycolytic Enzymes: An Evolutionary Route to Plant Parasitism in the Oomycete Phytophthora nicotianae” (Microorganisms, 2022).
Read-outs that look alike come from different tables or passages of the source.

Test system: GKI (PPTG_18934)
Conditions: pH 8.0, phosphate buffer

SMILES | Km (read-out: Km / ATP, co-substrate glucose) [µM] | Km (read-out: Km / Glucose, substrate inhibition at glucose >= 1 mM) [µM]
Nc1ncnc2c1ncn2[C@@H]1O[C@H](COP(=O)(O)OP(=O)(O)OP(=O)(O)O)[C@@H](O)[C@H]1O [ATP] | 700 ± 50 | –
OC[C@H]1OC(O)[C@H](O)[C@@H](O)[C@@H]1O (some centres unmarked) [Glucose] | – | 40.5 ± 5
